How the values were obtained:
[1] = tested on: mouse macrophage RAW 264.7 cells; type: cell-based; details: for NO production as the concentration increased: 100 ng/ml LPS, 1.25, 2.5, 5 and 10 μg/ml; for NO production as the concentration increased / Concentration at which the production of NO was the lowest: 24 hours; for Concentration at which the production of NO was the lowest: tested 1.25-10 μg/ml; for Effect relative to the same amount Brevilin-A (potency value of inflammation inhibition rate): from NO production potency formulas, FIG. 12
Experimental: The amount of NO produced by the cultured RAW 264.7 cells and present in the culture medium was measured using a NO detection kit (cat. No. 21021, Intron) based on the Griess reaction. 100 μl of the culture medium estimated to contain NO was dispensed into 96-well plates, and then 50 μl of N1 buffer (sulfanilamide) was added thereto and reacted at room temperature for 10 minutes. Next, 50 μl of N2 buffer (naphthylethylenediamine) was added thereto and reacted at room temperature for 10 minutes, and then the absorbance was measured at 540 nm. The amount of NO produced was determined using a standard calibration curve obtained using a nitrite standard. In addition, a positive control group (CTL) was treated with only LPS and fresh medium not containing any of the components, and a negative control group was treated with only 100 ng/ml LPS. The measurement results are presented as the average value of three repeated experiments.

[2] = tested on: mouse macrophage RAW 264.7 cells; details: 24 hours; for Cell viability as the concentration increased (cytotoxicity): 1.25, 2.5, 5 and 10 μg/ml; for Concentration at which the cell viability was the highest: tested 1.25-10 μg/ml; for Cell viability compared with positive control group (CTL): 10 μg/mL
Experimental: In addition, for comparison, an NO production inhibition measurement experiment and a cell viability measurement experiment were also conducted on the synthetic anti-inflammatory agent dexamethasone.
The experiments were conducted using mouse macrophage RAW 264.7 cells as an inflammatory model. RAW 264.7 cells were cultured in a 100 mm cell culture dish with DMEM containing 10% fetal bovine serum and 1% penicillin in a 5% CO2 incubator. Cells that reached confluence were detached using a scraper and subcultured.
Specifically, for the experiment on cell viability, RAW 264.7 cells were dispensed on a 60-mm plate at a density of 2×10^6 cells/dish, and attached to the plate for 24 hours. Then, the cells were treated with fresh media containing each component at concentrations of 1.25, 2.5, 5 and 10 μg/ml and cultured for 24 hours. The number of viable cells was counted by measuring the dehydrogenase present in the mitochondria within the cultured cells. EZ-CYTOX reagent (EZ-1000, Daeilab) was used, and based on the absorbance measured at 450 nm, the cell viability for each concentration was calculated according to the following equation: Cell viability=(absorbance of CMX-treated group/absorbance of untreated group)×100.

SMILES	NO production as the concentration increased [1]	Concentration at which the production of NO was the lowest ([1]; 100 ng/ml LPS)	Effect relative to the same amount Brevilin-A (potency value of inflammation inhibition rate) [1]	Cell viability as the concentration increased (cytotoxicity) [2]	Concentration at which the cell viability was the highest [2]	NO production compared with positive control group (CTL) ([1]; 5 μg/mL, 100 ng/ml LPS)	Cell viability compared with positive control group (CTL) [2]
C/C=C(/C)C(=O)O[C@H]1[C@@H]2[C@H](C)C(=O)O[C@@H]2C[C@@H](C)[C@@H]2C=CC(=O)[C@]21C [Brevilin A]	decreased	5 µg/mL	1.0	no significant change	5000 ng/mL		
C=C(C)C(=O)O[C@H]1[C@@H]2[C@H](C)C(=O)O[C@@H]2C[C@@H](C)[C@@H]2C=CC(=O)[C@]21C [Arnicolide D]	decreased		1.5	no significant change	5000 ng/mL	lower than that in the positive control group (CTL)	
C/C=C(\C)C(=O)O[C@H]1[C@@H]2[C@H](C)C(=O)O[C@@H]2C[C@@H](C)[C@@H]2C=CC(=O)[C@]21C [Microhelenin C]	decreased	10 µg/mL	0.8	no significant change			somewhat higher than that in the positive control group (CTL)
CC(C)C(=O)O[C@H]1[C@@H]2[C@H](C)C(=O)O[C@@H]2C[C@@H](C)[C@@H]2C=CC(=O)[C@]21C [Arnicolide C]	decreased	10 µg/mL	0.7	no significant change			difference in cell viability from the positive control group (CTL) was significantly small
